# Experimental data from patent publication EP4818191A1, “PEPTIDE AND CONJUGATE CONTAINING SAID PEPTIDE” (PeptiDream Inc., priority 2023, dated 2025).
# Target: T1, human CA9 (Homo sapiens, UniProt Q16790)
# T1 construct: purchased SinoBiological
# Assay: Intermolecular interaction against human CA9 by surface plasmon resonance (SPR)
# Type: binding
# Conditions: Human CA9-Fc captured on Protein A sensor chip, Single Cycle Kinetics, KD values only in Tables 7, 8 (images)
# Experimental: The intermolecular interactions of the peptides against human CA9 protein were examined by surface plasmon resonance (SPR) for the various peptides or conjugates synthesized in Examples 1 and 2, according to the methods described below. Specific test methods are described below.
# Protein A sensor chip (Cytiva) was inserted into BiacoreT200 (Cytiva) and primed with running buffer: 1× HBS-P+ (Cytiva), 1.0 % DMSO (Fujifilm Wako Pure Chemical Corporation), and 50 µM zinc acetate dihydrate (Hampton research), and equilibrated at a flow rate of 30 µL/min. 50 nM Human CA9-Fc (SinoBiological) diluted with running buffer was reacted at a flow rate of 5 µL/min for 60 seconds and captured into a flow cell.
# A solution containing each peptide or conjugate synthesized in Example 1 or 2 and prepared at 1 mM in DMSO solution was diluted with running buffer to a final concentration of 100 nM. Then, the peptide or conjugate solutions at 25 nM and 5 nM were further prepared. Depending on the affinity of the peptide or conjugate, the solution was diluted with running buffer to a final concentration of 40 nM. […]
# Using the above samples, the kinetics of each peptide or conjugate against human CA9 was obtained by SPR measurement. […] The binding of each peptide or conjugate to human CA9 was evaluated by performing least-squares curve fitting on the obtained sensorgram to calculate the KD value.
substance,measurement,value
C1Ac-da-Tbg-3Py6CON-Hgl-Meda-Ahp-PeG-S-3Py6NH2-HseMe-dk-Y-MeC [SEQ ID No. 45],activity of binding to human CA9 (CA9 binding ability),possesses CA9 binding ability
